In brackets after ≈: the same amount, converted by molar mass. Several values for one entry are separate records, joined by “and”; a condition that tells them apart may be missing. Equal entries are not always repeated.
Key:
[1] = test system: rumen fluid (in vitro rumen fermentations); parameters: species or system bovine; settings: for Percent Production of Control Fermantations: Rate of Gas Production / Percent Production of Control Fermantations: Total VFA(%): rumen fluid, 240 min
[2] = test system: Bacteroides fragilis ATCC 12290; assay: in vitro activity against anaerobic bacteria, two-fold serial broth dilution (Table 5); type: cell-based; settings: ATCC12290, trypticase soy broth, 37° C. overnight, read-out: Minimum Inhibitory Concentration
[3] = test system: Streptomyces cellulosae ATCC 3313; assay: antibacterial activity, Minimum Inhibitory Concentration (Table 4); type: cell-based; settings: ATCC3313
[4] = test system: Mycobacterium phlei ATCC 355; assay: as above; type: cell-based; settings: Mycolicibacterium phlei, ATCC355
[5] = test system: Bacillus subtilis Nrrl 558; assay: as above; type: cell-based; settings: NRRL558
[6] = test system: Staphylococcus aureus ATCC 6538P; assay: as above; type: cell-based; settings: ATCC6538P
[7] = test system: Bacillus megaterium ATCC 8011; assay: as above; type: cell-based; settings: Priestia megaterium, ATCC8011
Sarcina lutea ATCC 9341 = assay: as above; type: cell-based; settings: Micrococcus luteus, ATCC9341
[8] = test system: Bacillus sp. E ATCC 27859; assay: as above; type: cell-based; settings: ATCC27859
toxicity (LD50) in mice = settings: mouse, in vivo
Plasmodium bergei = assay: antimalarial activity against Plasmodium bergei in mice; type: in vivo
[9] = test system: Treponema hyodysenteriae strain B179; assay: activity against Treponema hyodysenteriae, blood agar plate dilution MIC; type: cell-based; settings: Steers inoculation, 48 hours, 42° C., anaerobic, in µg/mL
Excerpt: (§1) Testing for activity against Treponema hyodysenteriae, a cause of swine dysentery consisted of inoculation of blood agar plates containing a series of two and fourfold dilutions of antibiotic X-14766A and ipronidazole, an agent used in the treatment of swine dysentery, with tenfold dilutions of each of the T. hyodysenteriae strains (H 78, H 140, H 179).

[10] = test system: Treponema hyodysenteriae strain B78; assay: as above; type: cell-based; settings: 48 hours, 42° C., anaerobic, in µg/mL
Excerpt: as §1

[11] = test system: Treponema hyodysenteriae strain B140; assay: as above; type: cell-based; settings: 48 hours, 42° C., anaerobic, in µg/mL
Excerpt: as §1

[12] = test system: Bacillus sp. TA ATCC 27860; assay: antibacterial activity, Minimum Inhibitory Concentration (Table 4); type: cell-based; settings: ATCC27860
[13] = test system: Clostridium septicum 503-34; assay: in vitro activity against anaerobic bacteria, two-fold serial broth dilution (Table 5); type: cell-based; settings: 50334, trypticase soy broth, 37° C. overnight, read-out: Minimum Inhibitory Concentration
Method: (§2) *Two-fold serial broth dilution tests were carried out using trypticase
(§3) soy broth (TSB, BBL) as the test medium. All tests were incubated at
(§4) 37° C. overnight under anaerobic conditions.

[14] = test system: Clostridium histolyticum 503-86; assay: as above; type: cell-based; settings: Hathewaya histolytica, 50386, trypticase soy broth, 37° C. overnight, read-out: Minimum Inhibitory Concentration
Method: as §2, §3, §4

Row | Compound | C3 /C2 + nC4 [1] | Percent Production of Control Fermantations: Rate of Gas Production [1] | Percent Production of Control Fermantations: Total VFA(%) [1] | MIC [9] | MIC ([10]; Steers inoculation) | MIC ([10]; Syringe inoculation) | MIC ([11]; Steers inoculation) | MIC ([11]; Syringe inoculation) | other results
1 | CCOC(=O)C1OC(C2(C)OC3(OC4(C=CC3O)OC(C(C)C(=O)C(C)C(O)C(C)CC(C)c3c(Cl)cc(C)c(O)c3C(=O)O)C(C)CC4C)C(C)C2OC)CC1O (centres unmarked) [Antibiotic X-14766A] | 0.501 and 0.488 | 90% and 89% | 150.1% and 138.7% | < 0.04 and 0.02 | < 0.04 and 0.02 | 0.02 and 0.04 | < 0.04 and 0.04 | 0.02 and 0.04 | MIC [2]: 0.195 µg/mL (≈ 0.232 µM); MIC [3]: 0.2 µg/mL (≈ 0.238 µM); MIC [4]: 0.2 µg/mL (≈ 0.238 µM); MIC [5]: 0.2 µg/mL (≈ 0.238 µM); MIC [6]: 0.2 µg/mL (≈ 0.238 µM); MIC [7]: 0.08 µg/mL (≈ 0.0953 µM); MIC (Sarcina lutea ATCC 9341): 0.2 µg/mL (≈ 0.238 µM); MIC [8]: 0.04 µg/mL (≈ 0.0477 µM); LD50 (toxicity (LD50) in mice; ip): 5.75 mg/kg; LD50 (toxicity (LD50) in mice; po): 350 mg/kg; ED50 (Plasmodium bergei): 2.5 mg/kg; MIC [12]: 0.08 µg/mL (≈ 0.0953 µM); MIC [13]: 9.8 ng/mL (≈ 0.0117 µM); MIC [14]: 9.8 ng/mL (≈ 0.0117 µM)
2 | CC(C)c1ncc([N+](=O)[O-])n1C [Ipronidazole, ipronidazole, reference compound] |  |  |  | 0.16 and 0.31 | 0.16 and 0.31 | 0.63 | 0.16 and 0.31 | 0.63 | 
3 | CCC(C(=O)O)C1CCC(C)C(C(C)C(O)C(C)C(=O)C(CC)C2OC3(C=CC(O)C4(CCC(C)(C5CCC(O)(CC)C(C)O5)O4)O3)C(C)CC2C)O1 (centres unmarked) [Salino] | 0.497 and 0.512 | 83% and 90% | 146.9% and 145.5% |  |  |  |  |  | 
4 | CC[C@@]1([C@@H]2O[C@@H]([C@H]3O[C@@](O)(CO)[C@H](C)C[C@@H]3C)C[C@@H]2C)CC[C@H]([C@]2(C)CC[C@]3(C[C@H](O)[C@@H](C)[C@@H]([C@@H](C)[C@@H](OC)[C@H](C)C(=O)O)O3)O2)O1 [Monensin] | 0.565 and 0.575 | 89% and 85% | 105.3% and 110.7% |  |  |  |  |  | 
5 | CC[C@@H](C(=O)O)[C@@H]1O[C@@H]([C@@H](C)[C@H](O)[C@H](C)C(=O)[C@H](CC)[C@H]2O[C@]3(C=C[C@@H](O)[C@]4(CC[C@@](C)([C@H]5CC[C@](O)(CC)[C@H](C)O5)O4)O3)[C@H](C)C[C@@H]2C)[C@@H](C)C[C@@H]1C [Narasin] | 00.583 and 0.581 | 86% and 88% |  |  |  |  |  |  | 

Source: patent publication US4221724A, “Antibiotic X-14766A” (Hoffmann-La Roche Inc., priority 1978, dated 1980)
